# Where two headings read alike, the source gives them in different places.
# How the values were obtained:
# [1] = test system: retinal neovascularization in C57BL/6 mice; assay: Oxygen-induced retinopathy, area of retinal neovascularization; format: in vivo; settings: 5 ug peri-ocularly every 5 days
# Procedure: C57BL/6 mice placed in 75% O2 at postnatal day (P) 7 and at P12 were returned to room air and treatment initiated with compound or vehicle. At P17, the area of retinal NV on the surface of the retina was measured as described previously (Shen et al., 2007). Briefly, P17 mice were given an intraocular injection of 1 μl of rat anti-mouse platelet endothelial cell adhesion molecule-1 (PECAM-1) antibody (Pharmingen, San Jose, Calif., USA); after 12 h, they were euthanized, and eyes were fixed in PBS-buffered formalin for 5 h at room temperature. Retinas were dissected, washed, and incubated with goat-anti rat polyclonal antibody conjugated with Alexa 488 (Invitrogen, Carlsbad, Calif., USA) at 1:500 dilution at room temperature for 45 min and flat mounted. An observer masked with respect to treatment group measured the area of NV per retina by image analysis.
# (see, FIGS. 12 and 13). In systemic experiments both eyes were examined and no significant differences were observed between CCR3 inhibitor '994 and vehicle treated groups. In topical experiments no significant differences were noted between CCR3 inhibitor '994 and vehicle groups nor treated and fellow eye in the CCR3 inhibitor '994 treated group. […] Consequently SU4312 acts similarly on retinal neovascularization to that of an alternative receptor tyrosine kinase inhibitor pazopanib which was effective in limiting choroidal neovascularization.
# [2] = test system: laser-induced model of CNV AMD; settings: oral dosing; Mizutani et al., 2011; cited from earlier work
# [3] = test system: laser-induced CNV in Cynomolgus monkey; assay: Laser-induced choroidal neovascular AMD study in the Cynomolgus monkey, Grade IV lesions; format: in vivo
# Procedure: Cynomolgus monkeys were dosed with vehicle or the CCR3 antagonist tool compound the '415 compound as shown in Table A for 29 days with laser occurring […]. […]
# The macula of each eye underwent laser treatment with a 532-nm diode green laser burns (OcuLight GL, IRIDEX Corp Inc, Mountain View, Calif.) using a slit lamp delivery system and a Kaufman-Wallow (Ocular Instruments Inc, Bellevue, Wash.) plano fundus contact lens. Animals were anesthetized and nine areas symmetrically placed in the macula of each eye. The laser parameters included a 75-micron spot size and 0.1-second duration. The power setting used was assessed by the ability to produce a blister and a small haemorrhage. Unless haemorrhage is observed with the first laser treatment, a second laser spot will be placed adjacent to the first following the same laser procedure (except the wattage would be adjusted). For areas not adjacent to the fovea, the initial power setting was 500 mW; if a second spot is placed, the power was set to 650 mW. For the area adjacent to the fovea, the power settings was 400 mW (initial treatment) and 550 mW (second treatment). […]
# Animals were fasted before fluorescein angiography for at least 2 hours prior to being anesthetized and the eyes dilated with a mydriatic agent. […] Comparison of the incidence of Grade IV lesions between groups was evaluated.
# [4] = molecular target: T1, Cynomolgus monkey CCR3 (Macaca fascicularis, UniProt Q9BDS8); assay: Cynomolgus monkey whole blood eotaxin-stimulated eosinophil shape change assay; format: cell-based
# T1 construct: from tissue; host or cells: Cynomolgus monkey whole blood (eosinophils)
# T1 sequence (Q9BDS8 1-355): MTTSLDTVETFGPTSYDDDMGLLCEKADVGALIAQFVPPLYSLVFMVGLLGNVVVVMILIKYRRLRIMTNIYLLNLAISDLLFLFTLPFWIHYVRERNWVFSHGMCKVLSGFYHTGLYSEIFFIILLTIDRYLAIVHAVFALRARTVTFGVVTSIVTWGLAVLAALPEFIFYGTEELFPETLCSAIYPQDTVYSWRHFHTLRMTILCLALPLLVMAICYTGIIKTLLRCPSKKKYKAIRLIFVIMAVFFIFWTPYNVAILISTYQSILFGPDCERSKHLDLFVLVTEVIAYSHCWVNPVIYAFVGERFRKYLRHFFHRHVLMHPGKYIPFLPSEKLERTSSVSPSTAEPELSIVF
# Procedure: Blood (10 mL) was taken from Cynomolgus monkeys and 1.1 ml of 3.8% sodium citrate solution added. Aliquots (90 μl) were incubated with antagonist at room temperature for 10 minutes then transferred to BSA-coated micronic tubes containing agonist (10 μl human eotaxin (Peprotech) Eotaxin was present at final concentrations between 0 and 1000 nM. The cells were incubated at 37° C. for a further 4 minutes before addition of […] of ice-cold fixation buffer (a ¼ dilution of 1x Cellfix (Becton Dickinson)). After a minimum of 2 minutes the fixed samples were transferred into 2 ml of ice cold erythrocyte lysis buffer (155 mM NH4Cl, 10 mM KHCO3) and incubated on ice until lysis was complete (˜30 minutes). The mean forward scatter of the eosinophil population was then determined on a FACScalibur flow cytometer.
# The concentration response curve of eotaxin-1 on eosinophil shape change in Cynomolgus whole blood and the effect of pre-incubation of 10 nM and 100 nM the '415 compound is shown in FIG. 11.
# [5] = molecular target: T2, Cynomolgus whole blood CCR3 (Macaca fascicularis, UniProt Q9BDS8); assay: Fractional receptor occupancy at trough in Cynomolgus monkey; format: in vivo; settings: at trough (8 hours); both 9 mg/kg/day and 60 mg/kg/day, TID
# T2 construct: from tissue; host or cells: Cynomolgus monkey whole blood (eosinophils)
# T2 sequence (Q9BDS8 1-355): T1 sequence (Q9BDS8 1-355)
# [6] = Exposure in Cynomolgus monkey; settings: in vivo
compound,measurement,setting,value
CN(C)c1ccc(/C=C2\C(=O)Nc3ccccc32)cc1 [SU4312],effect on retinal neovascularization,[1],effective inhibitor
same,"p, reduction in retinal neovascularization, treated versus fellow (non-treated) eyes",[1],< 0.004
same,"p, reduction in retinal neovascularization, treated versus vehicle treated eyes",[1],< 0.003
Cc1ccc[n+]([O-])c1C(=O)N1CCC(=CC(=O)NC2CCN(Cc3ccc4cc(F)ccc4c3)C2)CC1 (centres unmarked) [YM-344031],efficacy in a laser-induced model of CNV AMD,[2],effective
"Cn1nnc(CNC(=O)NC[C@H]2CN(Cc3ccc(Cl)c(Cl)c3)CCO2)n1 [the '415 compound, (S)-1-((4-(3,4-dichlorobenzyl)morpholin-2-yl)methyl)-3-((2-methyl-2H-tetrazol-5-yl)methyl)urea]",effect on the generation of grade IV lesions,"[3]; 20 mg/kg TID po, fluorescence angiography at 16, 24 and 30 days post-laser",statistically robust effect
same,effect on the number of grade IV lesions,[3]; lower dose (3 mg/kg TID po),not statistically different from controls
same,inhibition of human eotaxin-induced eosinophil shape change,[4]; Cynomolgus whole blood,"concentration-dependent, surmountable inhibition"
same,Kb,"[4]; depending on experiment, read-out: pA2, potency against Cynomolgus monkey CCR3 (converted)",10 to 100 nM
same,Kb,"[4]; eotaxin-1 stimulated eosinophil shape change in Cynomolgus whole blood, read-out: mean pA2 (Schild analysis) (converted)",15.8 nM
same,fractional receptor occupancy,[5],> 95%
same,exposure in Cynomolgus monkey,[6],reasonable exposure in this primate with low inter-animal variability

# Reference: patent US20140335083A1, “METHODS OF TREATMENT AND PREVENTION OF EYE DISEASES” (GLAXO GROUP LIMITED, priority 2011, published 2014)
